From ChEMBL document CHEMBL1201862, “PubChem BioAssay data set” (2004)
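Assay format: 96-well plates, 48-hour exposure. The concentration for 50% growth inhibition is given as GI50.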 Calls of active or inactive are those of the source. Cut-off read from the data, not from the text of the source: active = GI50 up to about 1.1 µM and inactive = higher.

Assays:
Assay in all cases: inhibition of tumour cell growth, NCI panel, 48 h
SNB-78 = tested on: SNB-78
KM-20L2 = tested on: KM-20L2
HOP-18 = tested on: HOP-18
DMS-114 = tested on: DMS-114
M19-MEL = tested on: M19-MEL
DMS-273 = tested on: DMS-273
XF498 = tested on: XF498
T47D = tested on: T47D

Row | Compound | GI50 (SNB-78) | GI50 (KM-20L2) | GI50 (HOP-18) | GI50 (DMS-114) | GI50 (M19-MEL) | GI50 (DMS-273) | GI50 (XF498) | GI50 (T47D)
1 | CC1(C(=O)O)CCOc2ccccc21 (centres undefined) | > 100 µM (inactive) | > 100 µM (inactive) | > 100 µM (inactive) | > 100 µM (inactive) | > 100 µM (inactive) | – | – | –
2 | CC(=O)OCC1=C(CCC#N)N2C(=O)C(NC(=O)Cc3cccs3)C2[S+]([O-])C1 (centres undefined) | > 100 µM (inactive) | > 100 µM (inactive) | > 100 µM (inactive) | > 100 µM (inactive) | > 100 µM (inactive) | > 100 µM (inactive) | > 100 µM (inactive) | –
3 | CSc1ccc(OCC2OC2O)cc1 (centres undefined) | > 100 µM (inactive) | 46.2 µM (inactive) | > 100 µM (inactive) | 12.9 µM (inactive) | 37.7 µM (inactive) | 34.2 µM (inactive) | 30.5 µM (inactive) | –
4 | O=C(CSc1nc(-c2ccccc2)c(-c2ccccc2)[nH]1)N/N=C/c1ccc([N+](=O)[O-])cc1 | 21.2 µM (inactive) | 8.87 µM (inactive) | – | 18.5 µM (inactive) | 17.1 µM (inactive) | 14.1 µM (inactive) | 13.2 µM (inactive) | –
5 | CCN1CCC(O)(/C=C/c2ccc(Cl)cc2)C(C(=O)/C=C/c2ccc(Cl)cc2)C1 (centres undefined) | 45.5 µM (inactive) | 32.1 µM (inactive) | – | 26.6 µM (inactive) | 29.9 µM (inactive) | 28.4 µM (inactive) | 81.1 µM (inactive) | –
6 | CC1CC2OC(=O)C3CC(O)CC(=C23)[C@@]12C[C@@H](c1ccoc1)OC2=O (some centres undefined) | > 100 µM (inactive) | > 100 µM (inactive) | > 100 µM (inactive) | – | > 100 µM (inactive) | > 100 µM (inactive) | > 100 µM (inactive) | –
7 | Cc1cccc2c1Oc1cc(Cl)ccc1C2NC(=O)CN(C)C (centres undefined) | 50.7 µM (inactive) | 20 µM (inactive) | – | 34.9 µM (inactive) | 20.9 µM (inactive) | 28.8 µM (inactive) | – | –
8 | Cc1nc(=O)n2c(c1C(=O)Nc1ccc(Cl)cc1)NCCC2 | > 100 µM (inactive) | – | – | > 100 µM (inactive) | > 100 µM (inactive) | – | > 100 µM (inactive) | –
9 | C/C=C(\C)c1cc(O)c(C)c2c1Oc1cc(O)c(Cl)c(C)c1C(=O)O2 | 29.1 µM (inactive) | 20.7 µM (inactive) | < 0.01 µM (active) | 29.6 µM (inactive) | 34 µM (inactive) | 34.1 µM (inactive) | – | –
10 | C=C1CCc2occ(C)c2C2C1C1=C(CC(C)C1=O)C1OC12C (centres undefined) | > 100 µM (inactive) | > 100 µM (inactive) | 2.26 µM (inactive) | 99.1 µM (inactive) | > 100 µM (inactive) | – | 91.6 µM (inactive) | –
11 | C(=N\OCc1ccccc1)/c1ncccc1C1OCCO1 | > 100 µM (inactive) | > 100 µM (inactive) | > 100 µM (inactive) | > 100 µM (inactive) | > 100 µM (inactive) | > 100 µM (inactive) | – | –
12 | Cc1ccc(SCN2CCCCC2)cc1.O=C(Cl)c1ccc([N+](=O)[O-])cc1 | – | – | – | – | – | – | – | 12.2 µM (inactive)
13 | COc1cc2c(c(OC)c1OC)-c1ccc(SC)c(=O)cc1[C@@H](NC(=O)c1ccc(C#N)cc1)CC2 | < 0.01 µM (active) | < 0.01 µM (active) | – | < 0.01 µM (active) | < 0.01 µM (active) | < 0.01 µM (active) | < 0.01 µM (active) | –
14 | CCCCCCCCCCOC1C(C(C)OCCCN(C)C)OC2OC3(CCCCC3)OC21 (centres undefined) | – | – | – | – | – | – | – | 18.1 µM (inactive)
15 | O=C1C(C(O)(C(F)(F)Cl)C(F)(F)Cl)CCCC1C(O)(C(F)(F)Cl)C(F)(F)Cl (centres undefined) | – | – | – | – | – | – | – | > 10 µM (inactive)
16 | Cc1ccc(/N=N/c2ccc(O)c(CN(C)C)c2)cc1C | – | – | – | – | – | – | – | 14 µM (inactive)
17 | Cc1ccc(S(=O)(=O)N(CCNC(=O)c2cccc(O)c2O)c2cc3c4c(c2)Oc2cccc5c2C4(C)c2c(cccc2O3)O5)cc1 | – | – | – | – | – | – | – | 6.17 µM (inactive)
18 | COC(=O)C(=O)C(C(=O)C(=O)Nc1ccc(C)c(C)c1)c1nc2ccc([N+](=O)[O-])cc2nc1O (centres undefined) | – | – | – | – | – | – | – | > 100 µM (inactive)
19 | COc1ccc(Cc2nc3cc(Cl)ccc3o2)cc1 | – | – | – | – | – | – | – | 21.3 µM (inactive)
20 | C[N+]1(C)C2Cc3ccccc3C1Cc1ccccc12 | – | – | – | – | – | – | – | > 100 µM (inactive)
21 | O=C1NC(=O)C2=C1CCC2O (centres undefined) | – | – | – | – | – | – | – | > 100 µM (inactive)
